Molecules are shown by their SMILES.

Drawing on ChEMBL document CHEMBL4831516, “Development of Membrane-Active Honokiol/Magnolol Amphiphiles as Potent Antibacterial Agents against Methicillin-Resistant Staphylococcus aureus (MRSA)” (J Med Chem, 2021), this text covers HC50, MIC and selectivity ratio for 2 compounds.

Tested on in the first data set: not listed separately
Description: Hemolytic activity in sheep RBC assessed as hemolysis incubated for 1 hr. To be noted: sheep red blood cells (erythrocytes). Type of data set: ADME, cell-based, Ovis aries, Erythrocyte.
The HC50 is the concentration giving 50% haemolysis. In the case of `C=CCc1ccc(O)c(-c2cc(CC=C)ccc2OCCC[N+](C)(C)CC(=O)NCCCCCC)c1.[Br-]`, the HC50 at 1 h stood at 743 µg/mL.
As to `C=CCc1ccc(O)c(-c2cc(CC=C)ccc2OCCC[N+](C)(C)CC(=O)N(CCCC)CCCC)c1.[Br-]`, the concentration for 50% haemolysis (HC50) at 1 h was found to be 764 µg/mL.

The next data set concerns Escherichia coli. Description: Antibacterial activity against Escherichia coli ATCC25922 assessed as inhibition of visible growth incubated for 16 to 18 hrs by CLSI method. Type of data set: functional. To be noted: time 16-18 hrs, read-out: MIC100.
In the case of `C=CCc1ccc(O)c(-c2cc(CC=C)ccc2OCCC[N+](C)(C)CC(=O)NCCCCCC)c1.[Br-]`, the MIC came out at 8 µg/mL.
`C=CCc1ccc(O)c(-c2cc(CC=C)ccc2OCCC[N+](C)(C)CC(=O)N(CCCC)CCCC)c1.[Br-]`: the MIC was determined as 8 µg/mL.

The next data set relates to Staphylococcus aureus. Description: Antibacterial activity against methicillin-resistant Staphylococcus aureus clinical isolate M-17 assessed as inhibition of visible growth incubated for 16 to 18 hrs by CLSI method. Format: functional. The note with it: time 16-18 hrs, read-out: MIC100.
In the case of `C=CCc1ccc(O)c(-c2cc(CC=C)ccc2OCCC[N+](C)(C)CC(=O)NCCCCCC)c1.[Br-]`, the MIC came out at 2 µg/mL.
As for `C=CCc1ccc(O)c(-c2cc(CC=C)ccc2OCCC[N+](C)(C)CC(=O)N(CCCC)CCCC)c1.[Br-]`, the MIC came to 2 µg/mL.

Tested on in the next data set: not listed separately
The data set is described as follows: Selectivity index, HC50 for hemolytic activity in sheep RBC to MIC for antibacterial activity against Staphylococcus aureus ATCC29213. Format: toxicity. To be noted: sheep red blood cells (erythrocytes), read-out: Selectivity Index.
As for `C=CCc1ccc(O)c(-c2cc(CC=C)ccc2OCCC[N+](C)(C)CC(=O)NCCCCCC)c1.[Br-]`, the selectivity ratio came to 372.
Regarding `C=CCc1ccc(O)c(-c2cc(CC=C)ccc2OCCC[N+](C)(C)CC(=O)N(CCCC)CCCC)c1.[Br-]`, the selectivity ratio amounted to 382.

A further data set has as its system Staphylococcus aureus. The data set is described as follows: Antibacterial activity against methicillin-resistant Staphylococcus aureus clinical isolate M-18 assessed as inhibition of visible growth incubated for 16 to 18 hrs by CLSI method. Type of data set: functional. To be noted: time 16-18 hrs, read-out: MIC100.
With `C=CCc1ccc(O)c(-c2cc(CC=C)ccc2OCCC[N+](C)(C)CC(=O)NCCCCCC)c1.[Br-]`, the MIC came to 2 µg/mL.
For `C=CCc1ccc(O)c(-c2cc(CC=C)ccc2OCCC[N+](C)(C)CC(=O)N(CCCC)CCCC)c1.[Br-]`, the MIC is 2 µg/mL.

The subject of a further data set is Staphylococcus aureus. Description: Antibacterial activity against methicillin-resistant Staphylococcus aureus clinical isolate M-12 assessed as inhibition of visible growth incubated for 16 to 18 hrs by CLSI method. Type of data set: functional. To be noted: time 16-18 hrs, read-out: MIC100.
`C=CCc1ccc(O)c(-c2cc(CC=C)ccc2OCCC[N+](C)(C)CC(=O)NCCCCCC)c1.[Br-]`: the MIC stood at 2 µg/mL.
On to `C=CCc1ccc(O)c(-c2cc(CC=C)ccc2OCCC[N+](C)(C)CC(=O)N(CCCC)CCCC)c1.[Br-]`, for which the MIC was determined as 4 µg/mL.

The subject of a further data set is Staphylococcus aureus. Description: Antibacterial activity against methicillin-resistant Staphylococcus aureus clinical isolate M-13 assessed as inhibition of visible growth incubated for 16 to 18 hrs by CLSI method. Type of data set: functional. The note with it: time 16-18 hrs, read-out: MIC100.
Consider `C=CCc1ccc(O)c(-c2cc(CC=C)ccc2OCCC[N+](C)(C)CC(=O)NCCCCCC)c1.[Br-]`, for which the MIC is 4 µg/mL.
The same measure, in the same setting: to `C=CCc1ccc(O)c(-c2cc(CC=C)ccc2OCCC[N+](C)(C)CC(=O)N(CCCC)CCCC)c1.[Br-]` belongs 2 µg/mL.

The next data set concerns Staphylococcus aureus. Description: Antibacterial activity against methicillin-resistant Staphylococcus aureus clinical isolate M-20 assessed as inhibition of visible growth incubated for 16 to 18 hrs by CLSI method. The note with it: time 16-18 hrs, read-out: MIC100. Type of data set: functional.
For `C=CCc1ccc(O)c(-c2cc(CC=C)ccc2OCCC[N+](C)(C)CC(=O)NCCCCCC)c1.[Br-]`, the MIC is 2 µg/mL.
Turning to `C=CCc1ccc(O)c(-c2cc(CC=C)ccc2OCCC[N+](C)(C)CC(=O)N(CCCC)CCCC)c1.[Br-]`, the MIC was 2 µg/mL.

The test system of the next data set is Staphylococcus aureus. Description: Antibacterial activity against methicillin-resistant Staphylococcus aureus clinical isolate M-15 assessed as inhibition of visible growth incubated for 16 to 18 hrs by CLSI method. Type of data set: functional. The note with it: time 16-18 hrs, read-out: MIC100.
Regarding `C=CCc1ccc(O)c(-c2cc(CC=C)ccc2OCCC[N+](C)(C)CC(=O)NCCCCCC)c1.[Br-]`, the MIC worked out at 2 µg/mL.
Take `C=CCc1ccc(O)c(-c2cc(CC=C)ccc2OCCC[N+](C)(C)CC(=O)N(CCCC)CCCC)c1.[Br-]`: the MIC was determined as 2 µg/mL.

The subject of the next data set is Enterococcus faecalis. Description: Antibacterial activity against Enterococcus faecalis ATCC29212 assessed as inhibition of visible growth incubated for 16 to 18 hrs by CLSI method. Type of data set: functional. To be noted: time 16-18 hrs, read-out: MIC100.
As to `C=CCc1ccc(O)c(-c2cc(CC=C)ccc2OCCC[N+](C)(C)CC(=O)NCCCCCC)c1.[Br-]`, the MIC is 2 µg/mL.
Turning to `C=CCc1ccc(O)c(-c2cc(CC=C)ccc2OCCC[N+](C)(C)CC(=O)N(CCCC)CCCC)c1.[Br-]`, the MIC is 2 µg/mL.

Another data set concerns Bacillus subtilis. Description: Antibacterial activity against Bacillus subtilis assessed as inhibition of visible growth incubated for 16 to 18 hrs by CLSI method. Format: functional. The note with it: time 16-18 hrs, read-out: MIC100.
`C=CCc1ccc(O)c(-c2cc(CC=C)ccc2OCCC[N+](C)(C)CC(=O)NCCCCCC)c1.[Br-]`: the MIC stood at 0.5 µg/mL.
As to `C=CCc1ccc(O)c(-c2cc(CC=C)ccc2OCCC[N+](C)(C)CC(=O)N(CCCC)CCCC)c1.[Br-]`, the MIC was found to be 0.5 µg/mL.

The test system of the next data set is Salmonella enterica. Description: Antibacterial activity against Salmonella enterica 349812 assessed as inhibition of visible growth incubated for 16 to 18 hrs by CLSI method. To be noted: time 16-18 hrs, read-out: MIC100. Type of data set: functional.
For the compound `C=CCc1ccc(O)c(-c2cc(CC=C)ccc2OCCC[N+](C)(C)CC(=O)NCCCCCC)c1.[Br-]`, the MIC is 16 µg/mL.
With `C=CCc1ccc(O)c(-c2cc(CC=C)ccc2OCCC[N+](C)(C)CC(=O)N(CCCC)CCCC)c1.[Br-]`, the MIC came out at 8 µg/mL.

The next data set deals with Staphylococcus aureus. Description: Antibacterial activity against Staphylococcus aureus ATCC29213 assessed as inhibition of visible growth incubated for 16 to 18 hrs by CLSI method. Type of data set: functional. The note with it: time 16-18 hrs, read-out: MIC100.
Regarding `C=CCc1ccc(O)c(-c2cc(CC=C)ccc2OCCC[N+](C)(C)CC(=O)NCCCCCC)c1.[Br-]`, the MIC amounted to 2 µg/mL.
Same read-out and setting: to `C=CCc1ccc(O)c(-c2cc(CC=C)ccc2OCCC[N+](C)(C)CC(=O)N(CCCC)CCCC)c1.[Br-]` belongs 2 µg/mL.

The next data set concerns Staphylococcus aureus. Description: Antibacterial activity against methicillin-resistant Staphylococcus aureus clinical isolate M-14 assessed as inhibition of visible growth incubated for 16 to 18 hrs by CLSI method. Type of data set: functional. To be noted: time 16-18 hrs, read-out: MIC100.
Turning to `C=CCc1ccc(O)c(-c2cc(CC=C)ccc2OCCC[N+](C)(C)CC(=O)NCCCCCC)c1.[Br-]`, the MIC was found to be 2 µg/mL.
As to `C=CCc1ccc(O)c(-c2cc(CC=C)ccc2OCCC[N+](C)(C)CC(=O)N(CCCC)CCCC)c1.[Br-]`, the MIC was determined as 4 µg/mL.

For another data set, the system named is Stenotrophomonas maltophilia. Description: Antibacterial activity against Stenotrophomonas maltophilia assessed as inhibition of visible growth incubated for 16 to 18 hrs by CLSI method. Type of data set: functional. The note with it: time 16-18 hrs, read-out: MIC100.
Turning to `C=CCc1ccc(O)c(-c2cc(CC=C)ccc2OCCC[N+](C)(C)CC(=O)NCCCCCC)c1.[Br-]`, the MIC came to 16 µg/mL.
On the same count and under the same terms, the figure for `C=CCc1ccc(O)c(-c2cc(CC=C)ccc2OCCC[N+](C)(C)CC(=O)N(CCCC)CCCC)c1.[Br-]` is 8 µg/mL.

The test system of another data set is Staphylococcus aureus. The data set is described as follows: Antibacterial activity against methicillin-resistant Staphylococcus aureus clinical isolate M-16 assessed as inhibition of visible growth incubated for 16 to 18 hrs by CLSI method. The note with it: time 16-18 hrs, read-out: MIC100. Format: functional.
On to `C=CCc1ccc(O)c(-c2cc(CC=C)ccc2OCCC[N+](C)(C)CC(=O)NCCCCCC)c1.[Br-]`, for which the MIC turned out to be 2 µg/mL.
Regarding `C=CCc1ccc(O)c(-c2cc(CC=C)ccc2OCCC[N+](C)(C)CC(=O)N(CCCC)CCCC)c1.[Br-]`, the MIC was 2 µg/mL.

A further data set deals with Micrococcus luteus. Description: Antibacterial activity against Micrococcus luteus assessed as inhibition of visible growth incubated for 16 to 18 hrs by CLSI method. To be noted: time 16-18 hrs, read-out: MIC100. Format: functional.
Take `C=CCc1ccc(O)c(-c2cc(CC=C)ccc2OCCC[N+](C)(C)CC(=O)NCCCCCC)c1.[Br-]`: the MIC was determined as 0.5 µg/mL.
Consider `C=CCc1ccc(O)c(-c2cc(CC=C)ccc2OCCC[N+](C)(C)CC(=O)N(CCCC)CCCC)c1.[Br-]`, for which the MIC stood at 0.5 µg/mL.

Another data set concerns Staphylococcus aureus. The data set is described as follows: Antibacterial activity against methicillin-resistant Staphylococcus aureus clinical isolate M-19 assessed as inhibition of visible growth incubated for 16 to 18 hrs by CLSI method. Format: functional. The note with it: time 16-18 hrs, read-out: MIC100.
Take `C=CCc1ccc(O)c(-c2cc(CC=C)ccc2OCCC[N+](C)(C)CC(=O)NCCCCCC)c1.[Br-]`: the MIC was determined as 2 µg/mL.
`C=CCc1ccc(O)c(-c2cc(CC=C)ccc2OCCC[N+](C)(C)CC(=O)N(CCCC)CCCC)c1.[Br-]`: the MIC was determined as 1 µg/mL.

Another data set concerns Salmonella enterica. The data set is described as follows: Antibacterial activity against Salmonella enterica 8389 assessed as inhibition of visible growth incubated for 16 to 18 hrs by CLSI method. Format: functional. The note with it: time 16-18 hrs, read-out: MIC100.
In the case of `C=CCc1ccc(O)c(-c2cc(CC=C)ccc2OCCC[N+](C)(C)CC(=O)NCCCCCC)c1.[Br-]`, the MIC turned out to be 16 µg/mL.
With `C=CCc1ccc(O)c(-c2cc(CC=C)ccc2OCCC[N+](C)(C)CC(=O)N(CCCC)CCCC)c1.[Br-]`, the MIC came out at 16 µg/mL.

For the next data set, the system named is Staphylococcus aureus. Description: Antibacterial activity against methicillin-resistant Staphylococcus aureus clinical isolate M-11 assessed as inhibition of visible growth incubated for 16 to 18 hrs by CLSI method. Type of data set: functional. To be noted: time 16-18 hrs, read-out: MIC100.
Turning to `C=CCc1ccc(O)c(-c2cc(CC=C)ccc2OCCC[N+](C)(C)CC(=O)NCCCCCC)c1.[Br-]`, the MIC worked out at 4 µg/mL.
Regarding `C=CCc1ccc(O)c(-c2cc(CC=C)ccc2OCCC[N+](C)(C)CC(=O)N(CCCC)CCCC)c1.[Br-]`, the MIC turned out to be 4 µg/mL.
